Experimental data as given in patent publication US8884061B2, “Compositions and methods of use of electron transport system inhibitors” (priority 2006, dated 2014).
In brackets after ≈: the same amount, converted by molar mass. Like-named read-outs stand apart in the source and are kept apart here.

How the values were obtained:
Experiment in all cases: MIC, other bacteria (Table 3)
[1] = system: MRSA 2441-05112; assay type: cell-based, S. aureus; details: inoculum size 10^6 CFU/ml
[2] = system: MRSA 2441-05129; assay type: cell-based, S. aureus; details: inoculum size 10^6 CFU/ml
[3] = system: E. faecium NCTC 12203 (VRE); assay type: cell-based; details: high level VCM-resistant, Van A, inoculum size 10^6 CFU/ml
[4] = system: MRSA 2441-05104; assay type: cell-based, S. aureus; details: inoculum size 10^6 CFU/ml
[5] = system: S. marsascens ATCC 14756; assay type: cell-based; details: inoculum size 10^6 CFU/ml
[6] = system: MRSE 2442-05030; assay type: cell-based, S. epidermidis; details: inoculum size 10^6 CFU/ml
[7] = system: S. aureus ATCC 43300 (MRSA); assay type: cell-based; details: inoculum size 10^6 CFU/ml
[8] = system: MRSA 2441-05262; assay type: cell-based, S. aureus; details: inoculum size 10^6 CFU/ml
[9] = system: P. mirabilis ATCC 4630; assay type: cell-based
[10] = system: E. faecium ATCC 49224; assay type: cell-based; details: E. faecium ATCC 49224, GM-resistant, inoculum size 10^6 CFU/ml
[11] = system: MRSE 2442-05118; assay type: cell-based, S. epidermidis; details: inoculum size 10^6 CFU/ml
[12] = system: E. faecalis ATCC 29212; assay type: cell-based
[13] = system: VRSA 2441-T0044; assay type: cell-based, S. aureus
[14] = system: P. aeruginosa ATCC 27853; assay type: cell-based
[15] = system: VRSA 2441-T0041; assay type: cell-based, S. aureus
[16] = system: K. pneumoniae ATCC 27736; assay type: cell-based
[17] = system: MRSA 2441-05223; assay type: cell-based, S. aureus; details: inoculum size 10^6 CFU/ml
[18] = system: MRSE 2442-05060; assay type: cell-based, S. epidermidis; details: inoculum size 10^6 CFU/ml
[19] = system: MRSE 2442-05053; assay type: cell-based, S. epidermidis; details: inoculum size 10^6 CFU/ml
[20] = system: MRSE 2442-05110; assay type: cell-based, S. epidermidis; details: inoculum size 10^6 CFU/ml
[21] = system: E. faecalis ATCC 51299 (VRE); assay type: cell-based; details: low level VCM-resistant, Van B, inoculum size 10^6 CFU/ml
[22] = system: S. epidermidis ATCC 12228; assay type: cell-based
[23] = system: E. coli ATCC 25922; assay type: cell-based
[24] = system: E. faecalis NCTC 12201 (VRE); assay type: cell-based; details: high level VCM-resistant, Van A, inoculum size 10^6 CFU/ml
[25] = system: MRSA 2441-05254; assay type: cell-based, S. aureus; details: inoculum size 10^6 CFU/ml
[26] = system: MRSE 2442-05047; assay type: cell-based, S. epidermidis; details: inoculum size 10^6 CFU/ml
[27] = system: S. aureus ATCC 29213; assay type: cell-based
[28] = Staphylococcus aureus, read-out: MIC
[29] = Staphylococcus epidermidis, read-out: MIC
[30] = Enterococcus faecalis, read-out: MIC

## CC1COc2c(N3CCN(C)CC3)c(F)cc3c(=O)c(C(=O)O)cn1c23 (stereo not drawn) [OFLX, ofloxacin, reference compound]
[1]; [28]
  MIC: 50 µg/mL (≈ 138 µM)
[2]; [28]
  MIC: 1 µg/mL (≈ 2.77 µM)
[3]; Enterococcus faecium, read-out: MIC
  MIC: 3.13 µg/mL (≈ 8.66 µM)
[4]; [28]
  MIC: 25 µg/mL (≈ 69.2 µM)
[5]; read-out: MIC
  MIC: 0.024 µg/mL (≈ 0.0664 µM)
[6]; [29]
  MIC: 6.25 µg/mL (≈ 17.3 µM)
[7]; [28]
  MIC: 0.39 µg/mL (≈ 1.08 µM)
[8]; [28]
  MIC: 50 µg/mL (≈ 138 µM)
[9]; Proteus mirabilis, ATCC4630, inoculum size 10^6 CFU/ml, read-out: MIC
  MIC: 0.39 µg/mL (≈ 1.08 µM)
[10]; Enterococcus faecium, ATCC49224, read-out: MIC
  MIC: 3.13 µg/mL (≈ 8.66 µM)
[11]; [29]
  MIC: 6.25 µg/mL (≈ 17.3 µM)
[12]; Enterococcus faecalis, ATCC29212, inoculum size 10^6 CFU/ml, read-out: MIC
  MIC: 1.56 µg/mL (≈ 4.32 µM)
[13]; Staphylococcus aureus, VRSA
  MIC: 1.25 µg/mL (≈ 3.46 µM)
[14]; Pseudomonas aeruginosa, ATCC27853, inoculum size 10^6 CFU/ml, read-out: MIC
  MIC: 3.13 µg/mL (≈ 8.66 µM)
[15]; Staphylococcus aureus, VRSA
  MIC: 1.25 µg/mL (≈ 3.46 µM)
[16]; Klebsiella pneumoniae, ATCC27736, inoculum size 10^6 CFU/ml, read-out: MIC
  MIC: 0.2 µg/mL (≈ 0.553 µM)
[17]; [28]
  MIC: 0.2 µg/mL (≈ 0.553 µM)
[18]; [29]
  MIC: 6.25 µg/mL (≈ 17.3 µM)
[19]; [29]
  MIC: 6.25 µg/mL (≈ 17.3 µM)
[20]; [29]
  MIC: 6.25 µg/mL (≈ 17.3 µM)
[21]; [30]
  MIC: 1.56 µg/mL (≈ 4.32 µM)
[22]; Staphylococcus epidermidis, ATCC12228, inoculum size 10^6 CFU/ml, read-out: MIC
  MIC: 0.2 µg/mL (≈ 0.553 µM)
[23]; Escherichia coli, ATCC25922, inoculum size 10^6 CFU/ml, read-out: MIC
  MIC: 0.05 µg/mL (≈ 0.138 µM)
[24]; [30]
  MIC: 1.56 µg/mL (≈ 4.32 µM)
[25]; [28]
  MIC: 50 µg/mL (≈ 138 µM)
[26]; [29]
  MIC: 6.25 µg/mL (≈ 17.3 µM)
[27]; Staphylococcus aureus, ATCC29213, inoculum size 10^6 CFU/ml, read-out: MIC
  MIC: 0.2 µg/mL (≈ 0.553 µM)

## CN[C@H](CC(C)C)C(=O)N[C@H]1C(=O)N[C@@H](CC(N)=O)C(=O)N[C@H]2C(=O)N[C@H]3C(=O)N[C@H](C(=O)N[C@H](C(=O)O)c4cc(O)cc(O)c4-c4cc3ccc4O)[C@H](O)c3ccc(c(Cl)c3)Oc3cc2cc(c3O[C@@H]2O[C@H](CO)[C@@H](O)[C@H](O)[C@H]2O[C@H]2C[C@](C)(N)[C@H](O)[C@H](C)O2)Oc2ccc(cc2Cl)[C@H]1O [VCM, reference compound]
[1]
  MIC: 0.78 µg/mL (≈ 0.538 µM)
[2]
  MIC: 0.78 µg/mL (≈ 0.538 µM)
[3]
  MIC: >100 µg/mL
[4]
  MIC: 0.78 µg/mL (≈ 0.538 µM)
[5]
  MIC: >100 µg/mL
[6]
  MIC: 3.13 µg/mL (≈ 2.16 µM)
[7]
  MIC: 0.78 µg/mL (≈ 0.538 µM)
[8]
  MIC: 0.78 µg/mL (≈ 0.538 µM)
[9]; inoculum size 10^6 CFU/ml
  MIC: >100 µg/mL
[10]
  MIC: 3.13 µg/mL (≈ 2.16 µM)
[11]
  MIC: 1.56 µg/mL (≈ 1.08 µM)
[12]; inoculum size 10^6 CFU/ml
  MIC: 3.13 µg/mL (≈ 2.16 µM)
[13]; VRSA 2441-T0044, low level VCM-resistant, inoculum size 10^6 CFU/ml
  MIC: 6.25 µg/mL (≈ 4.31 µM)
[14]; inoculum size 10^6 CFU/ml
  MIC: >100 µg/mL
[15]; VRSA 2441-T0041, low level VCM-resistant, inoculum size 10^6 CFU/ml
  MIC: 3.13 µg/mL (≈ 2.16 µM)
[16]; inoculum size 10^6 CFU/ml
  MIC: >100 µg/mL
[17]
  MIC: 0.78 µg/mL (≈ 0.538 µM)
[18]
  MIC: 1.56 µg/mL (≈ 1.08 µM)
[19]
  MIC: 1.56 µg/mL (≈ 1.08 µM)
[20]
  MIC: 1.56 µg/mL (≈ 1.08 µM)
[21]
  MIC: 1.25 µg/mL (≈ 0.863 µM)
[22]; inoculum size 10^6 CFU/ml
  MIC: 1.56 µg/mL (≈ 1.08 µM)
[23]; inoculum size 10^6 CFU/ml
  MIC: >100 µg/mL
[24]
  MIC: >100 µg/mL
[25]
  MIC: 1.56 µg/mL (≈ 1.08 µM)
[26]
  MIC: 1.56 µg/mL (≈ 1.08 µM)
[27]; inoculum size 10^6 CFU/ml
  MIC: 0.78 µg/mL (≈ 0.538 µM)
